Measured values reported in patent US7687079B2, “Methods of treating ileus” (priority 2002, dated 2010).

How the values were obtained:
[1] = test system: IL-6 mRNA; assay: IL-6 mRNA expression in muscularis externae of intestinal grafts; format: in vivo, rat
Experimental: To investigate the sequential analysis of cytokine mRNA expression in the mucosa and muscularis, RNase protection assay was performed with the Riboquant™ kit (Pharmingen) according to the protocol of the manufacturer. […] Quantification of radioactivity of mRNA bands was performed with NIH Image, normalized to GAPDH, and expressed as a ratio of cytokine /GAPDH (n=3-4).
The effects of inhalation of CO on transplant-induced pro-inflammatory and anti-inflammatory gene expression was assessed in muscularis extracts by RT-PCR. […] Equal aliquots (5 μg) of total RNA from each sample were quantified by spectrophotometry (wavelength […]) and aliquoted at a concentration of 40 ng/μl. Peak mRNA expression was quantified in duplicate by SYBR Green two-step, real-time RT-PCR. […] Real-time PCR data were plotted as the ΔRn, fluorescence signal versus the cycle number. […] Quantification of mRNA expression was normalized to GAPDH and calculated relative to control using the comparative CT method (Schmittgen et al., J. Biochem. Biophys. Methods 46(1-2):69-8 (2000)). […]

[2] = test system: serum nitrite/nitrate; assay: serum nitrite/nitrate levels after SITx (Griess reaction); format: in vivo, rat; conditions: SITx + CO vs SITx with air
Experimental: To monitor the stable end-products of NO metabolism, serum […] levels at 1, 4, and 24 hrs were measured using a commercially available test kit (Cayman, Ann Arbor, Mich.) and quantified according to the manufacturer's directions. In this assay system, nitrate is reduced to nitrite using nitrate reductase, and the nitrite concentration of the sample is subsequently measured using the Griess reaction.
FIG. 6 is a set of bar graphs that illustrate the effect of CO on serum IL-6 and nitrate/nitrite concentrations in animals receiving intestinal grafts at one and four hours after reperfusion. […] Serum IL-6 concentrations were determined using a rat enzyme-linked immunoassay (ELISA) kit (R&D, Cambridge, Mass.). The serum nitrite/nitrate levels, the stable end products of NO metabolism, were measured using a commercially available test kit (Cayman, Ann Arbor, Mich.). In this assay system, nitrate is reduced to nitrite using nitrate reductase, and nitrite concentration of the sample was subsequently measured using the Griess reaction. Serum IL-6 and nitrite/nitrate levels in animals subjected SITx and treated with air increased over time.

SMILES: [C-]#[O+] [CO, carbon monoxide]
- IL-6 mRNA ([1]; SITx + CO, Table 2): 22.3 ± 1.8 % GAPDH
- reduction of mean relative IL-6 mRNA expression ([1]; SITx recipients treated with CO vs SITx, 4 hours after reperfusion, p=0.084): 40%
- serum nitrite/nitrate level [2]: significantly decreased
